Consider 3 compounds from ChEMBL document CHEMBL1201862, “PubChem BioAssay data set” (2004).

Test systems include OVCAR-5; HT-29; HL-60; SR; NCI-H460; SF-268; U-251; K562; HCC 2998; Hs-578T; A498; NCI/ADR-RES; HOP-92; RXF 393; CAKI-1; SNB-75; MDA-MB-435; OVCAR-3; COLO 205.
Assay in all cases: inhibition of tumour cell growth, NCI panel, 48 h

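How tested: cells in 96-well plates exposed to compound for 48 hours at five concentrations. Abbreviation: GI50, concentration required for 50% inhibition of growth.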 Activity calls are given as the source filed them. Rule as the data show it: active = GI50 up to about 1.1 µM and inactive = higher. Starred links: 1 amine or outer side, 2 acyl side, 3 side chain; linkers in the order of their positions; H or OH if unused. Positions of bridges follow the written chain, without caps; N, C: chain ends. Non-standard residues stand in square brackets, D forms with d. Residues, ends and D or L forms follow the SMILES beside them. ξ: configuration not given here. *: point of attachment. γ4hArg(2R,3R-(OH)2) = N=C(N)NCCC[C@H](N[*:1])[C@@H](O)[C@@H](O)C(=O)[*:2]; Gln(3S,4R-Me2) = C[C@H]([C@H](N)C(=O)O)[C@@H](C)C(N)=O; X50 = CC(C)C[C@H](C)[C@@H](O)[C@@H](C)C(=O)*; X51 = COC(c1ccc(O)cc1)C(N[*:1])C(=O)[*:2]; NMeQ = CN[C@@H](CCC(N)=O)C(=O)O; Thr(3ξ) = CC(O)[C@H](N)C(=O)O; NMeA = CN[C@@H](C)C(=O)O

With `COc1ccc(/C(CC2OC(=O)c3ccccc32)=N\NC(N)=O)cc1` (configuration not stated), the GI50 in the assay with OVCAR-5, in the assay with HT-29, with HL-60, in the assay with SR, in the assay on NCI-H460 and in the assay with SF-268 was > 100 µM (inactive) throughout. The GI50 with U-251, in the assay on K562, in the assay on HCC 2998, in the assay on Hs-578T, in the assay on A498 and in the assay on NCI/ADR-RES was > 100 µM (inactive) throughout. Moreover, the GI50 in the assay with HOP-92, in the assay with RXF 393, with CAKI-1, with SNB-75, in the assay on MDA-MB-435 and in the assay on OVCAR-3 was > 100 µM (inactive) each time. Moreover, the GI50 in the assay on COLO 205 was > 100 µM (inactive).

`Cc1cccc2c(N)c3cccc(C(=O)NCC[N+](C)(C)Cc4ccc([N+](=O)[O-])n4C)c3nc12`: the GI50 in the assay with OVCAR-5 is 17.6 µM (inactive); with HT-29, 9.33 µM (inactive); in the assay with HL-60, 4.6 µM (inactive); with SR, 3.44 µM (inactive); with NCI-H460, 8.97 µM (inactive); in the assay with SF-268 it was 8.47 µM (inactive). Further, the GI50 with U-251 was 8.26 µM (inactive); in the assay on K562, 11.5 µM (inactive); in the assay on HCC 2998, 10.6 µM (inactive); in the assay on Hs-578T it was 7.26 µM (inactive); with A498, 10.4 µM (inactive); in the assay with NCI/ADR-RES, 55.3 µM (inactive). Further, the GI50 in the assay on HOP-92 was 33.5 µM (inactive); in the assay with RXF 393, 22.4 µM (inactive); in the assay with CAKI-1, 7.1 µM (inactive); in the assay on SNB-75, 6.32 µM (inactive); with MDA-MB-435, 52 µM (inactive); with OVCAR-3, 24.7 µM (inactive). Moreover, in the assay with COLO 205, the GI50 was 9.82 µM (inactive).

On to `COC(c1ccc(O)cc1)C1NC(=O)[C@H](CCC(N)=O)N(C)C(=O)[C@H](CC(C)C)NC(=O)[C@@H](CCCN=C(N)N)NC(=O)[C@H](C(C)O)NC(=O)[C@@H](NC(=O)[C@@H](NC(=O)[C@H](O)[C@H](O)[C@H](CCCN=C(N)N)NC(=O)[C@H](C)NC(=O)[C@H](C)[C@H](O)[C@@H](C)CC(C)C)[C@@H](C)[C@@H](C)C(N)=O)[C@@H](C)OC(=O)[C@H](C)N(C)C1=O` (stereo partly drawn) (X50-A[γ4hArg(2R,3R-(OH)2)][Gln(3S,4R-Me2)]T[Thr(3ξ)][dR]L[NMeQ][X51][NMeA]; ester 4-C), for which the GI50 in the assay with OVCAR-5 was 0.167 µM (active); in the assay on HT-29 it was 0.0904 µM (active); in the assay on HL-60, 0.167 µM (active); in the assay with SR, 0.143 µM (active); with NCI-H460, 0.0604 µM (active); with SF-268 it was 0.0525 µM (active). The GI50 was 0.121 µM (active) in the assay with U-251; 0.0847 µM (active) in the assay with K562; 0.0877 µM (active) in the assay with HCC 2998; 0.0405 µM (active) in the assay with Hs-578T; 0.641 µM (active) in the assay with A498; 0.222 µM (active) in the assay with NCI/ADR-RES. Also, the GI50 was 0.138 µM (active) in the assay on HOP-92; 0.267 µM (active) in the assay with RXF 393; 0.102 µM (active) in the assay on CAKI-1; 0.0902 µM (active) with SNB-75; 0.145 µM (active) in the assay with MDA-MB-435; 0.083 µM (active) in the assay with OVCAR-3. Further, the GI50 in the assay on COLO 205 is 0.0881 µM (active).
